Numbering of substitutions follows the chain as printed.
Experiments:
KV4.3/KChIP3 [1] = molecular target: T1, KV4.3/KChIP3 (Homo sapiens, UniProt Q9Y2W7); test: whole-cell patch clamp, peak current at +[…] mV; assay type: cell-based
T1 sequence (Q9Y2W7 1-256): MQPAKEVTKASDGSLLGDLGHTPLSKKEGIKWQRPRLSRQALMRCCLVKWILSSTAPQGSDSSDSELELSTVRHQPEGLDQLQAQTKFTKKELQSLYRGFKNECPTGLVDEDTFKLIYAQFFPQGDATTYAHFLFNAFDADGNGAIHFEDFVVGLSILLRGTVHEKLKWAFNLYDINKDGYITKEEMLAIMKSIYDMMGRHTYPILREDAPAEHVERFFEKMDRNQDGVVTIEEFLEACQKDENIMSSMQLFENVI
T1 sequence (Q9UK17 1-655 partner): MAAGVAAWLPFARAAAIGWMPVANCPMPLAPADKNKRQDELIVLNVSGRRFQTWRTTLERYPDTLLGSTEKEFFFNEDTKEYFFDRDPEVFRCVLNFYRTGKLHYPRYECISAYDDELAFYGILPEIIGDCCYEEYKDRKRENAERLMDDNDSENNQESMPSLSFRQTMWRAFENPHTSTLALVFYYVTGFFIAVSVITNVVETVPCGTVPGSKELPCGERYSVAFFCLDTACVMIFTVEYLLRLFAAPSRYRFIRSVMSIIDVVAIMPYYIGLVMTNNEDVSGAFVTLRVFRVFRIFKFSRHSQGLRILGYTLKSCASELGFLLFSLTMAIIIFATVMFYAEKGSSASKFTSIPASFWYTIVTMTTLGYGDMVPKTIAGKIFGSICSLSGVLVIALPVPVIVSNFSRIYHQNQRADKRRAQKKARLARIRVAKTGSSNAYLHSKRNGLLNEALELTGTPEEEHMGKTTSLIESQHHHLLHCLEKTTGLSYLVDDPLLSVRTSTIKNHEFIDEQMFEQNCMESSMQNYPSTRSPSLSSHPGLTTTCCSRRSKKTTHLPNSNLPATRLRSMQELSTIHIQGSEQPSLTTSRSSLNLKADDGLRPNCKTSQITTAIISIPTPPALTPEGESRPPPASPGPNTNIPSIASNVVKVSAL

KV4.3/KChIP3 [2] = molecular target: T2, KV4.3/KChIP3 (Homo sapiens, UniProt Q9Y2W7, K166A); test: whole-cell patch clamp, per cent block; assay type: cell-based; settings: read-out: % inhibition at 30 nM
T2 sequence (Q9Y2W7 1-256 K166A): T1 sequence (Q9Y2W7 1-256) with K166A
T2 sequence (Q9UK17 1-655 partner): T1 sequence (Q9UK17 1-655 partner)

KV4.3/KChIP3 [3] = molecular target: T3, KV4.3/KChIP3 (Homo sapiens, UniProt Q9Y2W7, Y118A); test: whole-cell patch clamp, per cent block; assay type: cell-based; settings: read-out: % inhibition at 30 nM
T3 sequence (Q9Y2W7 1-256 Y118A): T1 sequence (Q9Y2W7 1-256) with Y118A
T3 sequence (Q9UK17 1-655 partner): T1 sequence (Q9UK17 1-655 partner)

KV4.3/KChIP3 [4] = molecular target: T1, KV4.3/KChIP3; test: whole-cell patch clamp, per cent block; assay type: cell-based; settings: read-out: % inhibition at 30 nM
KChIP3 = molecular target: T4, KChIP3 (Homo sapiens, UniProt Q9Y2W7); test: tryptophan fluorescence quenching; assay type: binding
T4 sequence (Q9Y2W7 1-256): T1 sequence (Q9Y2W7 1-256)

KV4.3/KChIP3 [5] = molecular target: T5, KV4.3/KChIP3 (Homo sapiens, UniProt Q9Y2W7, Y130A); test: whole-cell patch clamp, per cent block; assay type: cell-based; settings: read-out: % inhibition at 30 nM
T5 sequence (Q9Y2W7 1-256 Y130A): T1 sequence (Q9Y2W7 1-256) with Y130A
T5 sequence (Q9UK17 1-655 partner): T1 sequence (Q9UK17 1-655 partner)

- IC50 (KV4.3/KChIP3 [1]): 30 nM
- inhibition at 0.03 µM (KV4.3/KChIP3 [2]): 9 ± 2.5%
- inhibition at 0.03 µM (KV4.3/KChIP3 [3]): 17 ± 3.6%
- inhibition at 0.03 µM (KV4.3/KChIP3 [4]): 23.2 ± 2.7%
- Kd (KChIP3): 230 ± 20 nM
- inhibition at 0.03 µM (KV4.3/KChIP3 [5]): 9.7 ± 2.5%
SMILES: O=C(Cc1cccc(-c2ccccc2)c1)Nc1cc(Cl)ccc1C(=O)O [compound 1, 2-(2-([1,1’-biphenyl]-3-yl)acetamido)-4-chlorobenzoic acid]

— article doi:10.1101/2025.05.29.656781v1 (biorxiv, 2025)
